# Laboratory results published in patent US20230293526A1, “METHOD FOR TREATING CANCER WITH A REVERSE TRANSCRIPTASE INHIBITOR” (PrimeFour Therapeutics, Inc., priority 2020, published 2023).
# Legend:
# human LINE-1 = experiment: Human LINE-1 (L1) retrotransposition dual-luciferase reporter assay in HeLa cells; assay type: cell-based; conditions: Homo sapiens, HeLa, 72 h, read-out: Human LINE-1 IC50 (Human L1 activity inhibition)
# How it was run: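 HeLa cells transfected with dual-luciferase L1 plasmid pYX017 (100 ng/well), dosed immediately after with serially diluted compounds (0.2% DMSO final) in triplicate and incubated 72 h at 37 °C. Relative L1 activity = Firefly/Renilla ×10,000; IC50 from logistic non-linear regression.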
# cancer cell lines = experiment: Cancer cell proliferation activity of representative nucleosides, CellTiterGlo 72 h (Example 7, Tables 8 and 9); assay type: cell-based; conditions: 72 h
# How it was run: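 Cancer cell lines seeded and incubated at 37° C overnight, then exposed to nucleosides (final DMSO 0.1%) for 72 h at 37° C with 5% or 10% CO2. Viability read by CellTiterGlo luminescence and normalized to 0.1% DMSO (100%) and 10 μM staurosporine (0%) controls.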
structure (smiles),measurement,setting,value
C#C[C@]1(CO)O[C@@H](n2cc(F)c(N)nc2=O)C[C@@H]1O [compound 9],IC50,human LINE-1,0.021 µM
same,IC50,"cancer cell lines; 72 h, 5637, bladder",0.81 µM
same,IC50,"cancer cell lines; CLS439, bladder",> 50 µM
same,IC50,"cancer cell lines; HS729, muscle",> 50 µM
same,IC50,"cancer cell lines; J82, bladder",1.16 µM
same,IC50,"cancer cell lines; JAR, placenta",7.25 µM
same,IC50,"cancer cell lines; MT3, breast",1.46 µM
same,IC50,"cancer cell lines; PC3, prostate",6.33 µM
same,IC50,"cancer cell lines; RD, muscle",4.22 µM
same,IC50,"cancer cell lines; T24, bladder",3.76 µM
same,IC50,"cancer cell lines; Homo sapiens, 22Rv1, 72 h, 22RV1, prostate",0.55 µM
same,IC50,"cancer cell lines; Homo sapiens, 786-0, 72 h, 786O, kidney",3.54 µM
same,IC50,"cancer cell lines; Homo sapiens, A204, 72 h, A204, muscle",9.82 µM
same,IC50,"cancer cell lines; Homo sapiens, A549, 72 h, A549, lung",1.24 µM
same,IC50,"cancer cell lines; Homo sapiens, A673, 72 h, A673, bone",1.96 µM
same,IC50,"cancer cell lines; Homo sapiens, A2780, 72 h, A2780, ovary",4.18 µM
same,IC50,"cancer cell lines; Homo sapiens, A-375, 72 h, A375, skin",> 50 µM
same,IC50,"cancer cell lines; Homo sapiens, A-431, 72 h, A431, skin",0.11 µM
same,IC50,"cancer cell lines; Homo sapiens, ACHN, kidney",1.05 µM
same,IC50,"cancer cell lines; Homo sapiens, ASPC1, 72 h, ASPC1, pancreas",2.58 µM
same,IC50,"cancer cell lines; Homo sapiens, BT-20, 72 h, BT20, breast",> 50 µM
same,IC50,"cancer cell lines; Homo sapiens, BXPC-3, 72 h, BXPC3, pancreas",0.23 µM
same,IC50,"cancer cell lines; Homo sapiens, C-33-A, C33A, endometrial",4.56 µM
same,IC50,"cancer cell lines; Homo sapiens, CAKI-1, 72 h, CAKI1, kidney",> 50 µM
same,IC50,"cancer cell lines; Homo sapiens, COLO 205, 72 h, COLO205, colon",0.91 µM
same,IC50,"cancer cell lines; Homo sapiens, COLO-678, 72 h, COLO678, colon",> 50 µM
same,IC50,"cancer cell lines; Homo sapiens, Ca-Ski, CASKI, endometrial",11.6 µM
same,IC50,"cancer cell lines; Homo sapiens, Caco-2, 72 h, CACO2, colon",> 50 µM
same,IC50,"cancer cell lines; Homo sapiens, Calu-6, 72 h, CALU6, lung",> 50 µM
same,IC50,"cancer cell lines; Homo sapiens, DLD-1, 72 h, DLD1, colon",4.35 µM
same,IC50,"cancer cell lines; Homo sapiens, DU-145, 72 h, DU145, prostate",2.42 µM
same,IC50,"cancer cell lines; Homo sapiens, EFO-21, 72 h, EFO21, ovary",2.41 µM
same,IC50,"cancer cell lines; Homo sapiens, EJ-28, 72 h, EJ28, bladder",2.21 µM
same,IC50,"cancer cell lines; Homo sapiens, Granta-519, 72 h, GRANTA-519, hematological",3.24 µM
same,IC50,"cancer cell lines; Homo sapiens, HCT-15, 72 h, HCT15, colon",4.08 µM
same,IC50,"cancer cell lines; Homo sapiens, HCT-116, 72 h, HCT116, colon",> 50 µM
same,IC50,"cancer cell lines; Homo sapiens, HEK293, 72 h, HEK293, kidney",7.63 µM
same,IC50,"cancer cell lines; Homo sapiens, HL-60, 72 h, HL-60, hematological",4.04 µM
same,IC50,"cancer cell lines; Homo sapiens, HT-29, 72 h, HT29, colon",1.47 µM
same,IC50,"cancer cell lines; Homo sapiens, HT-1080, 72 h, HT1080, connective tissue",2.88 µM
same,IC50,"cancer cell lines; Homo sapiens, HeLa, endometrial",> 50 µM
same,IC50,"cancer cell lines; Homo sapiens, HepG2, 72 h, HEPG2, liver",1.6 µM
same,IC50,"cancer cell lines; Homo sapiens, Hs-578T, HS578T, breast",> 50 µM
same,IC50,"cancer cell lines; Homo sapiens, IGROV-1, 72 h, IGROV1, ovary",5.01 µM
same,IC50,"cancer cell lines; Homo sapiens, IMR-90, 72 h, IMR90, lung",> 50 µM
same,IC50,"cancer cell lines; Homo sapiens, JEG-3, 72 h, JEG3, placenta",0.99 µM
same,IC50,"cancer cell lines; Homo sapiens, JIMT-1, 72 h, JIMT1, breast",4.47 µM
same,IC50,"cancer cell lines; Homo sapiens, K562, 72 h, K-562, hematological",4.38 µM
same,IC50,"cancer cell lines; Homo sapiens, Kasumi 1, 72 h, KASUMI-1, hematological",> 50 µM
same,IC50,"cancer cell lines; Homo sapiens, L-363, 72 h, L-363, hematological",1.96 µM
same,IC50,"cancer cell lines; Homo sapiens, LoVo, colon",1.62 µM
same,IC50,"cancer cell lines; Homo sapiens, MCF7, 72 h, MCF7, breast",1.19 µM
same,IC50,"cancer cell lines; Homo sapiens, MDA-MB-231, 72 h, MDAMB231, breast",> 50 µM
same,IC50,"cancer cell lines; Homo sapiens, MDA-MB-435, 72 h, MDAMB435, skin",4.39 µM
same,IC50,"cancer cell lines; Homo sapiens, MDA-MB-436, 72 h, MDAMB436, breast",1.37 µM
same,IC50,"cancer cell lines; Homo sapiens, MDA-MB-468, 72 h, MDAMB468, breast",> 50 µM
same,IC50,"cancer cell lines; Homo sapiens, MG-63, 72 h, MG63, bone",2.44 µM
same,IC50,"cancer cell lines; Homo sapiens, MHH-ES-1, 72 h, MHHES1, bone",1.53 µM
same,IC50,"cancer cell lines; Homo sapiens, MIA PaCa-2, 72 h, MIAPACA2, pancreas",3.75 µM
same,IC50,"cancer cell lines; Homo sapiens, MINO, hematological",3.74 µM
same,IC50,"cancer cell lines; Homo sapiens, MV4-11, 72 h, MV4-11, hematological",0.39 µM
same,IC50,"cancer cell lines; Homo sapiens, NCI-H23, 72 h, NCI-H23, lung",2.42 µM
same,IC50,"cancer cell lines; Homo sapiens, NCI-H82, 72 h, NCIH82, lung",2.35 µM
same,IC50,"cancer cell lines; Homo sapiens, NCI-H292, 72 h, NCIH292, lung",> 50 µM
same,IC50,"cancer cell lines; Homo sapiens, NCI-H460, 72 h, NCIH460, ung",1.06 µM
same,IC50,"cancer cell lines; Homo sapiens, OVCAR-3, 72 h, OVCAR3, ovary",5.6 µM
same,IC50,"cancer cell lines; Homo sapiens, OVCAR-4, 72 h, OVCAR4, ovary",> 50 µM
same,IC50,"cancer cell lines; Homo sapiens, PANC-1, 72 h, PANC1, pancreas",6.4 µM
same,IC50,"cancer cell lines; Homo sapiens, PLC-PRF-5, 72 h, PLCPRF5, liver",3.24 µM
same,IC50,"cancer cell lines; Homo sapiens, Panc1005, 72 h, PANC1005, pancreas",16.4 µM
same,IC50,"cancer cell lines; Homo sapiens, Ramos, hematological",5.3 µM
same,IC50,"cancer cell lines; Homo sapiens, SAOS-2, 72 h, SAOS2, bone",4.72 µM
same,IC50,"cancer cell lines; Homo sapiens, SF-268, 72 h, SF268, brain",1.65 µM
same,IC50,"cancer cell lines; Homo sapiens, SF-295, 72 h, SF295, brain",4.49 µM
same,IC50,"cancer cell lines; Homo sapiens, SK-BR-3, 72 h, SKBR3, breast",0.12 µM
same,IC50,"cancer cell lines; Homo sapiens, SK-HEP1, 72 h, SKHEP1, liver",1.29 µM
same,IC50,"cancer cell lines; Homo sapiens, SK-LMS-1, 72 h, SKLMS1, uterus",5.61 µM
same,IC50,"cancer cell lines; Homo sapiens, SK-MEL-5, 72 h, SKMEL5, skin",5.52 µM
same,IC50,"cancer cell lines; Homo sapiens, SK-MEL-28, 72 h, SKMEL28, skin",> 50 µM
same,IC50,"cancer cell lines; Homo sapiens, SK-N-AS, SKNAS, brain",> 50 µM
same,IC50,"cancer cell lines; Homo sapiens, SK-N-SH, SKNSH, brain",2.44 µM
same,IC50,"cancer cell lines; Homo sapiens, SK-OV-3, 72 h, SKOV3, ovary",1.64 µM
same,IC50,"cancer cell lines; Homo sapiens, SNB-75, 72 h, SNB75, brain",> 50 µM
same,IC50,"cancer cell lines; Homo sapiens, SU-DHL10, 72 h, SU-DHL-10, hematological",3.15 µM
same,IC50,"cancer cell lines; Homo sapiens, SU-DHL-6, 72 h, SU-DHL-6, hematological",4.69 µM
same,IC50,"cancer cell lines; Homo sapiens, SW-620, 72 h, SW620, colon",0.91 µM
same,IC50,"cancer cell lines; Homo sapiens, TE-671, 72 h, TE671, muscle",5.9 µM
same,IC50,"cancer cell lines; Homo sapiens, THP-1, 72 h, THP-1, hematological",1.12 µM
same,IC50,"cancer cell lines; Homo sapiens, U2OS, bone",> 50 µM
same,IC50,"cancer cell lines; Homo sapiens, U-87 MG, U87MG, brain",11.9 µM
same,IC50,"cancer cell lines; Homo sapiens, UMUC3, 72 h, UMUC3, bladder",3.39 µM
same,IC50,"cancer cell lines; Homo sapiens, UO-31, 72 h, UO31, kidney",> 50 µM
same,IC50,"cancer cell lines; Homo sapiens, WSU-NHL, hematological",3.53 µM
same,IC50,"cancer cell lines; NCI-H358M, NCIH358M, lung",> 50 µM
same,IC50,"cancer cell lines; PBMC, hematological",> 50 µM
same,IC50,"cancer cell lines; RD-ES, RDES, bone",3.93 µM
